Experimental data as given in patent US5908788A, “Method of monitoring patient compliance with medications prescriptions” (priority 1996, dated 1999).
Values joined by “and” are separate entries in the source; they are usually repeats but may differ in a detail not shown here. Equal values may be shown once.

Legend:
[1] = in vivo
From the text: To determine compliance with the prescribed medication dose, random urine samples are obtained from the patient and analyzed in accordance with the invention as described in FIG. 9. […] The raw urine medication concentration (u) is next converted to a normalized urine medication concentration (nu) as discussed below. Over time, a normalized urine medication concentration-daily medication dose relationship is derived for each individual patient, which can be compared to the relationship expected for that particular patient. Alternatively, by adjusting the normalized urine medication concentration relative to the urinary pharmacokinetic parameters for each medication, a urinary-parameter normalized urine medication concentration (nup) may be calculated and compared to that expected for an average patient to determine compliance with the patient's prescribe medication dose.
nu=u'=u·(v/v')=u·UVPRF=u·(k1
The relationships for any medication family between nu and the medication pharmacokinetic parameters are empirically developed using regression analysis.
nup (patient body weight/k3)·u·UVPRF (19)
Two methods of interpreting urine medication results for compliance monitoring have now been developed. The first and most primitive method is to simply establish, using data from controls and compliant patients, mean drug levels and the expected ranges (minimums and maximums) for the nup of each particular medication at each particular daily, total dose amount.

[2] = tested on: migraine; experiment: Clinical cases: migraine in patients on methadone maintenance; type: in vivo, human
[3] = Urine Coc level of patient on codeine; type: in vivo, human; details: Table J, patient four
Experimental: (§1) Shown in FIG. 13 are mean nup values for codeine as a function of daily, total dose. […]. Her mean codeine level while stabilized on 90 mg of codeine qd, as shown on FIG. 13, should be 19,102 +/-3840 ng/ml.

[4] = Urine opiate concentration (codeine, oxycodone), urinary-parameter normalized; type: in vivo, human
Experimental: as §1
patient three is a person requiring opioid medications for severe arachnoiditis following surgery in the lumber spine. They were prescribed oxycodone without acetaminophen since they are status post removal of one kidney because of renal carcinoma. Shown in Table K are their oxycodone levels (40 mg per day total dose) which are within acceptable limits of 800-1600 ng/ml.

[5] = Renal excretion rate in timed urine aliquots of compliant control subjects; type: in vivo, human; details: as function of urine volume production rate, during a typical day
[6] = Urine methadone concentration (FPIA) of maintenance patients, with calculated plasma methadone concentration and urinary-parameter normalized urine concentration
From the text: The unadulterated sample is next analyzed for raw urine methadone concentration, preferably using fluorescence polarization immunoassay (FPIA) technology. In this regard an Abbott TDX or ADX Analyzer may be profitably employed. Other standard analytical methods may also be used such as chromatography or other types of immunoassay. […]
where cl is renal clearance (ml/min), u is raw urine methadone concentration (ng/ml), v is the volume of urine collected in time (ml/min) or otherwise known as the urine volume production rate, and p is the measured plasma methadone concentration at the midpoint of the collection period (ng/ml).
Combining all of the above considerations, plasma methadone concentrations can be calculated by substituting Equations (2, 8, 9 and 10) in Equation (3): [formula] where values of u, specific gravity, and pH are known from previous test results on a patient's spot urine sample. The equation may be more generally expressed as follows: […]
p=k3 ·u·(k1 SGF-k2)/k4
FIG. 6 was developed by utilizing data from 8300 urine samples from 150 methadone maintenance patients on controlled daily methadone dosages.
The parameters of a patient's urine, such as pH and specific gravity, vary from one day to the next dependant upon the type and quantities of foods and beverages ingested. Additionally, individuals metabolizes these substances, as well as methadone, at different rates. To account for these variations, a urinary-parameter normalized urine methadone concentration, nup, is calculated that adjusts measured raw urine methadone concentration, u, in accordance with a prescribed methadone dose, urine specific gravity, patient's current body weight (lbs) and urine pH. The relationship between u, pH, dose and specific gravity was empirically developed using nonlinear regression analysis. […]
nup =(k3 /DOSE)^k4 ·(k5 /pH)^k6 […]
Given this value, another set of prediction equations specifying the allowable range for the next measured nup for a particular patient, given a sample size of n, a mean nup for an individual patient and either the patient standard deviation or the population standard deviation (whichever is least), can be calculated as shown in Hahn and Meeker. If the measured value is within the acceptable statistical range, given a previously calculated mean and standard deviation, then it is accepted. If the value is too high or too low, this is marked on the urine drug screen under the column called Pred, as shown in clinical cases #'s 4 and 5, Tables F and G.

[7] = Plasma methadone calculated from spot urine versus measured plasma methadone (FIG. 7)
[8] = to deter illicit opioid use; past studies; cited from earlier work
[9] = Table A, compliant patient, dose 60 mg/day, individual dates
[10] = Table A, compliant patient, dose 70 mg/day, individual dates
[11] = Table A, mean of 12 tests, 60-70 mg/day
[12] = Table B, patient one, dose 45 mg, individual dates
[13] = Table B, patient one, mean of 12 tests, 45 mg
[14] = Table C, patient two, mean of 12 tests, dose 40-100
[15] = Table D, patient two (barbiturates discontinued), dose 130
[16] = Table D, patient two, mean of 12 tests, dose 110-130
[17] = Table G, mean of 13 tests, dose 130
[18] = patient two, 130 mg per day methadone

## CN1C(=O)CN=C(c2ccccc2)c2cc(Cl)ccc21 [diazepam]
[1]
  SEE of nup = k*Dose: 806
  importance of urine pH for nup: not important
  nup per daily dose (coefficient of nup = k*Dose): 267(SE 16.9)

## Oc1ccc2c3c1O[C@H]1[C@@H](O)CC[C@@]4(O)[C@@H](C2)N(CC2CCC2)CC[C@]314 [nalbuphine]
[2]; patient two, self-administered IM
  control of migraine pain: failure

## COC(=O)[C@H]1[C@@H](OC(=O)c2ccccc2)C[C@@H]2CC[C@H]1N2C [Coc]
[3]
  Coc: 0

## COc1ccc2c3c1O[C@H]1[C@@H](O)C=C[C@H]4[C@@H](C2)N(C)CC[C@@]341 [codeine]
[4]; FIG. 13, patient four stabilized on 90 mg of codeine qd
  mean codeine level (nup): 19,102 +/-3840 ng/ml
[4]; Table J, patient four, mean of 9 tests, 90 mg codeine qd
  Opi (nup, codeine), mean: 19102 ng/mL

## COc1ccc2c3c1O[C@H]1C(=O)CC[C@@]4(O)[C@@H](C2)N(C)CC[C@]314 [oxycodone]
[4]; Table K, patient three, mean of 12 tests, 40 mg per day
  nup, Opi (oxycodone), mean: 1206 ng/mL
[4]; patient three, 40 mg per day total dose
  oxycodone levels, acceptable limits: 800 to 1600 ng/mL

## Cc1nnc2n1-c1ccc(Cl)cc1C(c1ccccc1)=NC2 [alprazolam]
[1]; human
  Xanax level, mean: 4268 ng/mL
[1]
  SD of alprazolam normalized concentration, % of mean: ~15%
  SEE of nup = k*Dose: 210
  importance of urine pH for nup: not important

## CCC(=O)C(CC(C)N(C)C)(c1ccccc1)c1ccccc1 (stereo not drawn) [methadone]
[5]
  renal excretion rate (mg/min): relatively constant
[6]; [9]
  nup, urinary-parameter normalized urine methadone concentration: 7448 ng/mL and 9473 ng/mL
  u, raw urine methadone concentration: 7049 ng/mL and 4935 ng/mL
[6]; [10]
  nup, urinary-parameter normalized urine methadone concentration: 6966 ng/mL and 7381 ng/mL and 10913 ng/mL and 7430 ng/mL and 7208 ng/mL and 6254 ng/mL and 5532 ng/mL and 7790 ng/mL and 5852 ng/mL and 6881 ng/mL
  u, raw urine methadone concentration: 6838 ng/mL and 6536 ng/mL and 5462 ng/mL and 5180 ng/mL and 7398 ng/mL and 5990 ng/mL and 4203 ng/mL and 8469 ng/mL and 3736 ng/mL and 5601 ng/mL
[6]; [11]
  nup, mean: 7427 ng/mL
  u, mean: 5950 ng/mL
[6]; [12]
  nup, urinary-parameter normalized urine methadone concentration: 21153 ng/mL and 25720 ng/mL and 22145 ng/mL and 32208 ng/mL and 10174 ng/mL and 13051 ng/mL and 15585 ng/mL and 17845 ng/mL and 7585 ng/mL and 10815 ng/mL and 20168 ng/mL and 18777 ng/mL
  u, raw urine methadone concentration: 1069 ng/mL and 1336 ng/mL and 2109 ng/mL and 1883 ng/mL and 646 ng/mL and 1246 ng/mL and 1285 ng/mL and 757 ng/mL and 4094 ng/mL and 1318 ng/mL and 3900 ng/mL and 915 ng/mL
[6]; [13]
  nup, mean: 17265 ng/mL
  u, mean: 1713 ng/mL
[6]; Table C, patient two, dose 40
  u, raw urine methadone concentration: 174 ng/mL and 296 ng/mL
[6]; Table C, patient two, dose 50
  nup, urinary-parameter normalized urine methadone concentration: 2924 ng/mL
  u, raw urine methadone concentration: 853 ng/mL
[6]; Table C, patient two, dose 65
  nup, urinary-parameter normalized urine methadone concentration: 1367 ng/mL
[6]; Table C, patient two, dose 80
  nup, urinary-parameter normalized urine methadone concentration: 1070 ng/mL
  u, raw urine methadone concentration: 1120 ng/mL
[6]; [14]
  nup, mean: 1709 ng/mL
  u, mean: 1456 ng/mL
[6]; [15]
  nup, urinary-parameter normalized urine methadone concentration: 7728 ng/mL and 5944 ng/mL and 5117 ng/mL
  u, raw urine methadone concentration: 4915 ng/mL and 6565 ng/mL and 9494 ng/mL
[6]; Table D, patient two, dose 110
  nup, urinary-parameter normalized urine methadone concentration: 6580 ng/mL and 6703 ng/mL and 10880 ng/mL and 6025 ng/mL
[6]; Table D, patient two, dose 120
  nup, urinary-parameter normalized urine methadone concentration: 8970 ng/mL and 6778 ng/mL and 8074 ng/mL and 11966 ng/mL and 6031 ng/mL
[6]; [16]
  nup, mean: 7236 ng/mL
  u, mean: 7036 ng/mL
[6]; Table F, case #4, dose 140
  Pred (flag: nup outside statistical range predicted for patient): High
[6]; Table F, mean of 11 tests, dose 120-140
  nup, mean: 5130 ng/mL
[6]; Table F, mean of 12 tests, dose 120-140
  u, mean: 8008 ng/mL
[6]; Table G, case #5, dose 130
  Pred (flag: nup outside statistical range predicted for patient): LOW and HIGH
[6]; [17]
  nup, mean: 8396 ng/mL
  u, mean: 10585 ng/mL
[6]; acceptably compliant methadone patients
  average population standard deviation of nup: about 3000
[6]; patient two, Tables C and D, after discontinuing barbiturate-containing compounds
  plasma methadone levels over time: increased
[7]; FIG. 7
  adjusted squared multiple R, estimated versus measured plasma methadone concentration: 0.987
[7]; FIG. 7, linear regression, intercept -1.25 (SE 11.495), F-ratio 810
  slope, estimated versus measured plasma methadone concentration: 0.970 (SE 0.034)
[8]
  optimum/necessary (24-hour trough) plasma methadone concentration: 150 to 600 ng/mL
[2]; patient one, 36 months, 45 mg methadone
  migraine attacks during treatment: 2 migraine attacks
[2]; patient one, titration to 45 mg methadone
  frequency and severity of migraines: migraines slowly decayed in frequency and severity
[2]; patient one, transient decrease after vomiting
  plasma methadone level related to migraine attacks: below 80 ng/ml
[2]; [18]
  migraine response: migraines ceased completely
  plasma methadone level at which migraines ceased completely: above 135 ng/ml
